Patent US20110118343A1, “Antitumoral Macrolides” (Pharma Mar, S. A., priority 2008, published 2011)
Values after ≈ are worked out from the molar mass of the structure shown. Where two headings read alike, the source gives them in different places.

Assays:
KB cells = conditions: KB cell line; cited from earlier work
L1210 = L1210 cell line; cited from earlier work
P388 leukemia = conditions: cited from earlier work; for antitumor activity / toxicity in antitumoral study: P388 leukemia cell line in CDF1 mice
MDA-MB-231 [1] = experiment: SRB colorimetric cytotoxicity assay, MDA-MB-231; format: cell-based; conditions: for LC50 (concentration killing 50% of cells) / GI50: Homo sapiens; for LC50 (concentration killing 50% of cells): MDA-MB-231, 72 h, read-out: LC50; for GI50 / TGI: MDA-MB-231, 72 hours treatment, SRB; for TGI: total cell growth inhibition
Source text: (§1) The aim of this assay is to evaluate the in vitro cytostatic (ability to delay or arrest tumor cell growth) or cytotoxic (ability to kill tumor cells) activity of the samples being tested.
(§2) A colorimetric assay, using sulforhodamine B (SRB) reaction has been adapted to provide a quantitative measurement of cell growth and viability (following the technique described by Skehan et al. J. Natl. Cancer Inst. 1990, 82, 1107-1112).
(§3) This form of assay employs SBS-standard 96-well cell culture microplates (Faircloth et al. Methods in Cell Science, 1988, 11(4), 201-205; Mosmann et al, Journal of Immunological Methods, 1983, 65(1-2), 55-63). All the cell lines used in this study were obtained from the American Type Culture Collection (ATCC) and derive from different types of human cancer.
(§4) Cells were maintained in Dulbecco's Modified Eagle Medium (DMEM) supplemented with 10% Fetal Bovine Serum (FBS), 2 mM L-glutamine, 100 U/mL penicillin and 100 U/mL streptomycin at 37° C., 5% CO2 and 98% humidity. For the experiments, cells were harvested from subconfluent cultures using trypsinization and resuspended in fresh medium before counting and plating.
(§5) Cells were seeded in 96 well microtiter plates, at 5×10^3-7.5×10^3 cells per well in aliquots of 150 μL, and allowed to attach to the plate surface for 18 hours (overnight) in drug free medium. After that, one control (untreated) plate of each cell line was fixed (as described below) and used for time zero reference value. Culture plates were then treated with test compounds (50 μL aliquots of 4× stock solutions in complete culture medium plus 4% DMSO) using ten serial dilutions (concentrations ranging from 10 to 0.00262 μg/mL) and triplicate cultures (1% final concentration of DMSO). After 72 hours treatment, the antitumor effect was measured by using the SRB methodology: Briefly, cells were washed twice with PBS, fixed for 15 min in 1% glutaraldehyde solution at room temperature, rinsed twice in PBS, and stained in 0.4% SRB solution for 30 min at room temperature. Cells were then rinsed several times with 1% acetic acid solution and air-dried at room temperature. SRB was then extracted in 10 mM trizma base solution and the absorbance measured in an automated spectrophotometric plate reader at 490 nm. Effects on cell growth and survival were estimated by applying the NCI algorithm (Boyd M R and Paull K D. Drug Dev. Res. 1995, 34, 91-104).
(§6) Using the mean±SD of triplicate cultures, a dose-response curve was automatically generated using nonlinear regression analysis. Three reference parameters were calculated (NCI algorithm) by automatic interpolation: GI50=compound concentration that produces 50% cell growth inhibition, as compared to control cultures; TGI=compound concentration that produces total cell growth inhibition (cytostatic effect), as compared to control cultures, and LC50=compound concentration that produces 50% net cell killing (cytotoxic effect).

A549 [2] = experiment: SRB colorimetric cytotoxicity assay, A549; format: cell-based; conditions: for TGI / GI50: A549, 72 hours treatment, SRB; for TGI: total cell growth inhibition; for CC50 / GI50: Homo sapiens; for CC50: A549, 72 h, read-out: LC50
Source text: as §1, §2, §3, §4, §5, §6

HT29 [3] = experiment: SRB colorimetric cytotoxicity assay, HT29; format: cell-based; conditions: for TGI / GI50: HT29, 72 hours treatment, SRB; for TGI: total cell growth inhibition; for CC50 / GI50: Homo sapiens; for CC50: HT-29, 72 h, read-out: LC50; for GI50: HT-29
Source text: as §1, §2, §3, §4, §5, §6

HT29 [4] = conditions: cited from earlier work
MDA-MB-231 [5] = conditions: cited from earlier work
A549 [6] = conditions: cited from earlier work

Molecule	IC50 (cytotoxicity) (KB cells) [µg/mL]	IC50 (cytotoxicity) (L1210) [µg/mL]	antitumor activity (P388 leukemia)	toxicity in antitumoral study (P388 leukemia)	LC50 (concentration killing 50% of cells) (MDA-MB-231 [1]) [nM]	GI50 (MDA-MB-231 [1]) [nM]	TGI (MDA-MB-231 [1]) [Molar]	TGI (A549 [2]) [Molar]	CC50 (A549 [2]) [nM]	GI50 (A549 [2]) [nM]	TGI (HT29 [3]) [Molar]	CC50 (HT29 [3]) [nM]	GI50 (HT29 [3]) [nM]	other results
CO[C@H]1CC(CC[C@H](C)[C@H](O)[C@H](C)[C@H]2OC(=O)/C=C/C(C)=C/C[C@H](O)C[C@@H]3C=CC[C@@H](C[C@H](OC)[C@@H](C)[C@@H](O)C[C@@H](O)[C@H](C)[C@@H]([C@@H](C)[C@@H](O)[C@@H](C)CC[C@H]4C[C@H](OC)C[C@H](C)O4)OC(=O)/C=C/C(C)=C/C[C@H](O)C[C@@H]4C=CC[C@@H](C[C@H](OC)[C@@H](C)[C@@H](O)C[C@@H](O)[C@@H]2C)O4)O3)O[C@@H](C)C1 (stereo partly shown) [Swinholide A]	0.04 (≈ 0.0288 µM)	0.03 (≈ 0.0216 µM)	did not show promising antitumor activity	toxic	–	–	–	–	–	–	–	–	–	–
Swinholide B	0.04	0.30	–	–	–	–	–	–	–	–	–	–	–	–
COCC1C/C(C)=C\C2OC(=O)C=C(C/C=C/C(O)CC(O)C(C)C(OC)CCC(C)C(OC)CC3CC(=CC(=O)O3)CC(=O)N/C=C\C=C\CC(CC(=O)OC)CC(O)C/C(C)=C\C=C\C(OC)CC(=O)O1)C2C (stereo not shown) [Nanomolide A]	–	–	–	–	45.5	8.35	1.71E−08	1.52E−08	23.7	10.4	1.04E−08	16.1	7.59	–
COC1CC(C)OC(CCC(C)C(O)C(C)C2OC(=O)/C(C)=C/CC(O)CC3C=CCC(CC(OC)C(C)C(O)CC(O)C(C)C(C(C)C(O)C(C)CCC4CC(OC)CC(C)O4)OC(=O)/C(C)=C/CC(O)CC4C=CCC(CC(OC)C(C)C(O)CC(O)C2C)O4)O3)C1 (stereo not shown) [Misakinolide A]	–	0.035 (≈ 0.0262 µM)	–	–	–	–	–	–	–	–	–	–	–	T/C (P388 leukemia; dose of 0.1 mg/kg (mouse) against P388 leukemia): 140%
COC1CC(C)OC(CCC(C)C(O)C(C)C2OC(=O)/C=C/C(C)=C/CC(O)CC3C=CCC(CC(OC)C(C)C(O)CC(O)C(C)C(C(C)C(O)C(C)CCC4CC(OC)CC(C)O4)OC(=O)/C(C)=C/CC(O)CC4C=CCC(CC(OC)C(C)C(O)CC(O)C2C)O4)O3)C1 (stereo not shown) [compound a]	–	–	–	–	–	–	–	–	–	–	–	–	–	GI50 (HT29 [4]): 338 nM; GI50 (MDA-MB-231 [5]): 808 nM; GI50 (A549 [6]): 228 nM
COCC1C/C(C)=C\C2OC(=O)C/C(=C\C=C\C(O)CC(O)C(C)C(OC)CCC(C)C(OC)CC3CC(=CC(=O)O3)CC(=O)N/C=C\C=C\CC(CC(=O)OC)CC(O)C/C(C)=C\C=C\C(OC)CC(=O)O1)C2C (stereo not shown) [Nanomolide C]	–	–	–	–	22.8	15.2	1.90E−08	2.47E−08	49.3	14.2	1.52E−08	21.8	12.3	–
COC1CC(C)OC(CCC(C)C(O)C(C)C2OC(=O)/C=C\C(C)=C\CC(O)CC3C=CCC(CC(OC)C(C)C(O)CC(O)C(C)C(C(C)C(O)C(C)CCC4CC(O)CC(C)O4)OC(=O)/C=C\C(C)=C\CC(O)CC4C=CCC(CC(OC)C(C)C(O)CC(O)C2C)O4)O3)C1 (stereo not shown) [Swinholide C]	0.05 (≈ 0.0363 µM)	0.14 (≈ 0.102 µM)	–	–	–	–	–	–	–	–	–	–	–	–
CO[C@H]1CC(CC[C@H](C)C2OC(=O)/C=C/C(C)=C/CC(O)C[C@@H]3C=CCC(C[C@H](OC)[C@@H](C)[C@@H](O)C[C@@H](O)[C@H](C)[C@H](O)[C@@H](C)[C@H]([C@@H](C)CC[C@H]4C[C@H](OC)C[C@H](C)O4)OC(=O)/C=C/C(C)=C/C[C@H](O)C[C@@H]4C=CCC(C[C@H](OC)[C@@H](C)[C@@H](O)C[C@@H](O)[C@H](C)[C@H](O)[C@H]2C)O4)O3)O[C@@H](C)C1 (single isomer, unassigned) [isomer 11]	–	–	did not show promising antitumor activity	toxic	–	–	–	–	–	–	–	–	–	–
COCC1C/C(C)=C\C2OC(=O)C=C(C/C=C/C(O)CC(O)C(C)C(OC)CCC(C)C(OC)CC3CC(=CC(=O)O3)CC(=O)N/C=C\C=C\CC3CC(=O)OC(C/C(C)=C\C=C\C(OC)CC(=O)O1)C3)C2C (stereo not shown) [Nanomolide B]	–	–	–	–	108	94.9	9.78E−08	1.27E−07	235	73.4	9.29E−08	97.8	88	–
CO[C@H]1CC(CC[C@H](C)[C@H](O)[C@H](C)C2OC(=O)/C=C/C(C)=C/C[C@H](O)C[C@@H]3C=CC[C@@H](C[C@H](OC)[C@@H](C)[C@@H](O)C[C@@H](O)[C@H](C)[C@H](O)[C@@H](C)[C@H]([C@@H](C)CC[C@H]4C[C@H](OC)C[C@H](C)O4)OC(=O)/C=C/C(C)=C/C[C@H](O)C[C@@H]4C=CCC(C[C@H](OC)[C@@H](C)[C@@H](O)C[C@@H](O)[C@@H]2C)O4)O3)O[C@@H](C)C1 (stereo partly shown) [isoswinholide A]	1.1 (≈ 0.791 µM)	1.35 (≈ 0.971 µM)	did not show promising antitumor activity	toxic	–	–	–	–	–	–	–	–	–	–
